Columns and labels:
SK-OV-3 = assay type: cell-based; details: Homo sapiens, one dose 10^-5 M, 48 h
OVCAR-4 = assay type: cell-based; details: Homo sapiens, one dose 10^-5 M, 48 h
K-562 = assay type: cell-based; details: Homo sapiens, K562, one dose 10^-5 M, 48 h
HOP-92 = assay type: cell-based; details: Homo sapiens, one dose 10^-5 M, 48 h
OVCAR-5 = assay type: cell-based; details: Homo sapiens, one dose 10^-5 M, 48 h
NCI/ADR-RES = assay type: cell-based; details: Homo sapiens, one dose 10^-5 M, 48 h
CCRF-CEM = assay type: cell-based; details: Homo sapiens, one dose 10^-5 M, 48 h
EKVX = assay type: cell-based; details: Homo sapiens, one dose 10^-5 M, 48 h
RXF 393 = assay type: cell-based; details: Homo sapiens, RXF 393, 48 h, one dose 10^-5 M, 48 h, read-out: % growth
UACC-257 = assay type: cell-based; details: Homo sapiens, one dose 10^-5 M, 48 h
SF-268 = assay type: cell-based; details: Homo sapiens, one dose 10^-5 M, 48 h, read-out: % growth
SF-539 = assay type: cell-based; details: Homo sapiens, one dose 10^-5 M, 48 h
A498 = assay type: cell-based; details: Homo sapiens, one dose 10^-5 M, 48 h
LOX IMVI = assay type: cell-based; details: Homo sapiens, one dose 10^-5 M, 48 h, read-out: % growth
HCT-116 = assay type: cell-based; details: Homo sapiens, one dose 10^-5 M, 48 h, read-out: % growth
SK-MEL-28 = assay type: cell-based; details: Homo sapiens, one dose 10^-5 M, 48 h
NCI-H460 = assay type: cell-based; details: Homo sapiens, one dose 10^-5 M, 48 h, read-out: % growth
SK-MEL-2 = assay type: cell-based; details: Homo sapiens, one dose 10^-5 M, 48 h
MDA-MB-468 = assay type: cell-based; details: Homo sapiens, one dose 10^-5 M, 48 h
MDA-MB-231/ATCC = assay type: cell-based; details: Homo sapiens, one dose 10^-5 M, 48 h
HS 578T = assay type: cell-based; details: Homo sapiens; one dose 10^-5 M, 48 h; HS 578T; read-out: % growth
MDA-MB-435 = assay type: cell-based; details: Homo sapiens, one dose 10^-5 M, 48 h, read-out: % growth
MALME-3M = assay type: cell-based; details: Homo sapiens, one dose 10^-5 M, 48 h
SNB-19 = assay type: cell-based; details: Homo sapiens, one dose 10^-5 M, 48 h, read-out: % growth
HCC-2998 = assay type: cell-based; details: Homo sapiens, one dose 10^-5 M, 48 h
U251 = assay type: cell-based; details: Homo sapiens, U-251, one dose 10^-5 M, 48 h
RPMI-8226 = assay type: cell-based; details: Homo sapiens, one dose 10^-5 M, 48 h
ACHN = assay type: cell-based; details: Homo sapiens, one dose 10^-5 M, 48 h
NCI-H522 = assay type: cell-based; details: Homo sapiens, one dose 10^-5 M, 48 h
CAKI-1 = assay type: cell-based; details: Homo sapiens, CAKI-1, 48 h, one dose 10^-5 M, 48 h
OVCAR-8 = assay type: cell-based; details: Homo sapiens, one dose 10^-5 M, 48 h
KM12 = assay type: cell-based; details: Homo sapiens, one dose 10^-5 M, 48 h
IGROV1 = assay type: cell-based; details: Homo sapiens, IGROV-1, one dose 10^-5 M, 48 h, read-out: % growth
UACC-62 = assay type: cell-based; details: Homo sapiens, one dose 10^-5 M, 48 h
SR = assay type: cell-based; details: Homo sapiens, one dose 10^-5 M, 48 h
A549/ATCC = assay type: cell-based; details: Homo sapiens, one dose 10^-5 M, 48 h
BT-549 = assay type: cell-based; details: Homo sapiens, one dose 10^-5 M, 48 h
HCT-15 = assay type: cell-based; details: Homo sapiens, one dose 10^-5 M, 48 h, read-out: % growth
MOLT-4 = assay type: cell-based; details: Homo sapiens, one dose 10^-5 M, 48 h, read-out: % growth
M14 = assay type: cell-based; details: Homo sapiens, one dose 10^-5 M, 48 h
SK-MEL-5 = assay type: cell-based; details: Homo sapiens, one dose 10^-5 M, 48 h, read-out: % growth
SN12C = assay type: cell-based, human; details: Homo sapiens, one dose 10^-5 M, 48 h
SF-295 = assay type: cell-based; details: Homo sapiens, one dose 10^-5 M, 48 h
HT29 = assay type: cell-based; details: Homo sapiens, HT-29, one dose 10^-5 M, 48 h
TK-10 = assay type: cell-based; details: Homo sapiens, one dose 10^-5 M, 48 h
786-0 = assay type: cell-based; details: Homo sapiens, one dose 10^-5 M, 48 h
T-47D = assay type: cell-based; details: Homo sapiens, T47D, one dose 10^-5 M, 48 h, read-out: % growth
HL-60(TB) = assay type: cell-based; details: Homo sapiens, one dose 10^-5 M, 48 h
NCI-H226 = assay type: cell-based; details: Homo sapiens, one dose 10^-5 M, 48 h
PC-3 = assay type: cell-based; details: Homo sapiens, one dose 10^-5 M, 48 h
[1] = test system: full NCI 60 cell lines panel; details: for activity at 10 µM: Homo sapiens, 60 cell, 48 h, read-out: Mean % growth; for activity on all 60 cancer cell lines tested (in words): one dose
COLO 205 = assay type: cell-based; details: Homo sapiens, one dose 10^-5 M, 48 h
NCI-H23 = assay type: cell-based; details: Homo sapiens, one dose 10^-5 M, 48 h, read-out: % growth
MCF7 = assay type: cell-based; details: Homo sapiens, one dose 10^-5 M, 48 h, read-out: % growth
SW-620 = assay type: cell-based; details: Homo sapiens, one dose 10^-5 M, 48 h
OVCAR-3 = assay type: cell-based; details: Homo sapiens, one dose 10^-5 M, 48 h
HOP-62 = assay type: cell-based; details: Homo sapiens, one dose 10^-5 M, 48 h
UO-31 = assay type: cell-based; details: Homo sapiens, UO-31, 48 h, one dose 10^-5 M, 48 h
DU-145 = assay type: cell-based; details: Homo sapiens, one dose 10^-5 M, 48 h

`COc1ccc(C=NNC(=N)c2c(N)nc(S)nc2-c2ccc(Cl)cc2Cl)cc1` [Compound 4p, 4-amino-6–(2,4-dichlorophenyl)-2-mercapto-N'-[(4-methoxyphenyl)methylene] pyrimidine-5-carboximidohydrazide] gave a % growth at 10 µM (SK-OV-3) of 108%, a % growth at 10 µM (OVCAR-4) of 122% and a % growth at 10 µM (K-562) of 102%. For the same molecule, the % growth at 10 µM (HOP-92) was 74.8%, the percent cell growth at 10 µM (OVCAR-5) was 117% and the cell growth percent at 10 µM (NCI/ADR-RES) was 114%. It also gave a % cell growth at 10 µM (CCRF-CEM) of 99.1%, a % cell growth at 10 µM (EKVX) of 108% and an activity at 10 µM (RXF 393) of 94.5%. The percent cell growth at 10 µM (UACC-257) was 103%, the activity at 10 µM (SF-268) was 104% and the % growth at 10 µM (SF-539) was 96.8%. It also gave a % growth at 10 µM (A498) of 138%, an activity at 10 µM (LOX IMVI) of 103% and an activity at 10 µM (HCT-116) of 99.8%. It also gave a % cell growth at 10 µM (SK-MEL-28) of 112%, an activity at 10 µM (NCI-H460) of 113% and a % growth at 10 µM (SK-MEL-2) of 115%. It also gave a percent cell growth at 10 µM (MDA-MB-468) of 105%, a % growth at 10 µM (MDA-MB-231/ATCC) of 90.5% and an activity at 10 µM (HS 578T) of 105%. For the same molecule, the activity at 10 µM (MDA-MB-435) was 113%, the % growth at 10 µM (MALME-3M) was 89.4% and the activity at 10 µM (SNB-19) was 93%. The % growth at 10 µM (HCC-2998) was 118%, the % growth at 10 µM (U251) was 103% and the % growth at 10 µM (RPMI-8226) was 99.4%. The % growth at 10 µM (ACHN) was 110%, the % growth at 10 µM (NCI-H522) was 97.5% and the % growth at 10 µM (CAKI-1) was 97.3%. It also gave a % growth of cells at 10 µM (OVCAR-8) of 103%, a % growth at 10 µM (KM12) of 104% and an activity at 10 µM (IGROV1) of 108%. The % growth at 10 µM (UACC-62) was 97.2%, the percent cell growth at 10 µM (SR) was 97.5% and the % growth at 10 µM (A549/ATCC) was 102%. For the same molecule, the % cell growth at 10 µM (BT-549) was 95.6%, the activity at 10 µM (HCT-15) was 106% and the activity at 10 µM (MOLT-4) was 95.7%. The % growth at 10 µM (M14) was 107%, the activity at 10 µM (SK-MEL-5) was 105% and the % growth at 10 µM (SN12C) was 108%. For the same molecule, the % cell growth at 10 µM (SF-295) was 85.8%, the % growth at 10 µM (HT29) was 106% and the % cell growth at 10 µM (TK-10) was 143%. The % growth at 10 µM (786-0) was 90.2%, the activity at 10 µM (T-47D) was 100% and the % growth at 10 µM (HL-60(TB)) was 96.9%. For the same molecule, the % growth at 10 µM (NCI-H226) was 97.2%, the percent cell growth at 10 µM (PC-3) was 98.9% and the activity at 10 µM [1] was 104%. For the same molecule, the “activity on all 60 cancer cell lines tested (in words)” value [1] was “weak activity”, the % growth at 10 µM (COLO 205) was 127% and the activity at 10 µM (NCI-H23) was 100%. The activity at 10 µM (MCF7) was 91.5%, the % growth at 10 µM (SW-620) was 105% and the % growth at 10 µM (OVCAR-3) was 113%. For the same molecule, the % growth at 10 µM (HOP-62) was 90.2%, the % cell growth at 10 µM (UO-31) was 97.7% and the % growth at 10 µM (DU-145) was 110%.
Work on `N=C(NN=Cc1ccc(Br)cc1)c1c(N)nc(S)nc1-c1ccc(Cl)cc1Cl` [Compound 4q, 4-amino-N'-[(4-bromophenyl)methylene]-6–(2,4-dichlorophenyl)-2-mercapto pyrimidine-5-carboximidohydrazide] yielded a % growth at 10 µM (SK-OV-3) of 103%, a % growth at 10 µM (OVCAR-4) of 109% and a % growth at 10 µM (K-562) of 92.2%. It also gave a % growth at 10 µM (HOP-92) of 102%, a percent cell growth at 10 µM (OVCAR-5) of 119% and a cell growth percent at 10 µM (NCI/ADR-RES) of 114%. The % cell growth at 10 µM (CCRF-CEM) was 96.8%, the % cell growth at 10 µM (EKVX) was 108% and the activity at 10 µM (RXF 393) was 101%. It also gave a percent cell growth at 10 µM (UACC-257) of 102%, an activity at 10 µM (SF-268) of 105% and a % growth at 10 µM (SF-539) of 102%. For the same molecule, the % growth at 10 µM (A498) was 129%, the activity at 10 µM (LOX IMVI) was 109% and the activity at 10 µM (HCT-116) was 96.2%. The % cell growth at 10 µM (SK-MEL-28) was 106%, the activity at 10 µM (NCI-H460) was 110% and the % growth at 10 µM (SK-MEL-2) was 109%. It also gave a percent cell growth at 10 µM (MDA-MB-468) of 113%, a % growth at 10 µM (MDA-MB-231/ATCC) of 98.5% and an activity at 10 µM (HS 578T) of 118%. It also gave an activity at 10 µM (MDA-MB-435) of 104%, a % growth at 10 µM (MALME-3M) of 91.2% and an activity at 10 µM (SNB-19) of 99.2%. The % growth at 10 µM (HCC-2998) was 114%, the % growth at 10 µM (U251) was 107% and the % growth at 10 µM (RPMI-8226) was 98.8%. For the same molecule, the % growth at 10 µM (ACHN) was 108%, the % growth at 10 µM (NCI-H522) was 101% and the % growth at 10 µM (CAKI-1) was 86.9%. It also gave a % growth of cells at 10 µM (OVCAR-8) of 114%, a % growth at 10 µM (KM12) of 100% and an activity at 10 µM (IGROV1) of 105%. The % growth at 10 µM (UACC-62) was 96.4%, the percent cell growth at 10 µM (SR) was 86.7% and the % growth at 10 µM (A549/ATCC) was 98.8%. It also gave a % cell growth at 10 µM (BT-549) of 97.7%, an activity at 10 µM (HCT-15) of 108% and an activity at 10 µM (MOLT-4) of 91.4%. The % growth at 10 µM (M14) was 101%, the activity at 10 µM (SK-MEL-5) was 104% and the % growth at 10 µM (SN12C) was 103%. It also gave a % cell growth at 10 µM (SF-295) of 96.6%, a % growth at 10 µM (HT29) of 112% and a % cell growth at 10 µM (TK-10) of 148%. The % growth at 10 µM (786-0) was 93.8%, the activity at 10 µM (T-47D) was 110% and the % growth at 10 µM (HL-60(TB)) was 96.5%. The % growth at 10 µM (NCI-H226) was 107%, the percent cell growth at 10 µM (PC-3) was 102% and the activity at 10 µM [1] was 104%. The “activity on all 60 cancer cell lines tested (in words)” value [1] was “weak activity”, the % growth at 10 µM (COLO 205) was 114% and the activity at 10 µM (NCI-H23) was 102%. The activity at 10 µM (MCF7) was 90.9%, the % growth at 10 µM (SW-620) was 108% and the % growth at 10 µM (OVCAR-3) was 104%. For the same molecule, the % growth at 10 µM (HOP-62) was 101%, the % cell growth at 10 µM (UO-31) was 94.2% and the % growth at 10 µM (DU-145) was 108%.

Source: article PMC10866072, “Design, synthesis, molecular modelling and biological evaluation of novel 6-amino-5-cyano-2-thiopyrimidine derivatives as potent anticancer agents against leukemia and apoptotic inducers” (Journal of Enzyme Inhibition and Medicinal Chemistry, 2024)
